Assay results from patent US20250155427A1, “CELLS […] TASTE RECEPTORS AND USES THEREOF” (Firmenich Incorporated, priority 2022, published 2025).

Molecular target: T1, human T1R1, a rat-human T1R3 chimera, and the promiscuous G-protein G16gust25 (UniProt Q7RTX1+Q923K1, A568E/A645S/A698V/A702T/A793V/A807V/C582S/C678S/E725V/E827G/F612A/F622V/F805L/I617V/I740A/I779T/I803L/K818R/L735F/L823M/L825Q/M644L/M706V/M729T/N675D/Q717H/Q757R/Q795R/Q831P/R632Q/R634S/S576L/S610P/S635P/S637R/S679G/T588V/T694M/T813A/V584A/V718M/V723A/V738A/V744T/V821L/W599R/W676R/W824R/Y598H/Y680C/Y794L)
T1 sequence (Q7RTX1 21-841): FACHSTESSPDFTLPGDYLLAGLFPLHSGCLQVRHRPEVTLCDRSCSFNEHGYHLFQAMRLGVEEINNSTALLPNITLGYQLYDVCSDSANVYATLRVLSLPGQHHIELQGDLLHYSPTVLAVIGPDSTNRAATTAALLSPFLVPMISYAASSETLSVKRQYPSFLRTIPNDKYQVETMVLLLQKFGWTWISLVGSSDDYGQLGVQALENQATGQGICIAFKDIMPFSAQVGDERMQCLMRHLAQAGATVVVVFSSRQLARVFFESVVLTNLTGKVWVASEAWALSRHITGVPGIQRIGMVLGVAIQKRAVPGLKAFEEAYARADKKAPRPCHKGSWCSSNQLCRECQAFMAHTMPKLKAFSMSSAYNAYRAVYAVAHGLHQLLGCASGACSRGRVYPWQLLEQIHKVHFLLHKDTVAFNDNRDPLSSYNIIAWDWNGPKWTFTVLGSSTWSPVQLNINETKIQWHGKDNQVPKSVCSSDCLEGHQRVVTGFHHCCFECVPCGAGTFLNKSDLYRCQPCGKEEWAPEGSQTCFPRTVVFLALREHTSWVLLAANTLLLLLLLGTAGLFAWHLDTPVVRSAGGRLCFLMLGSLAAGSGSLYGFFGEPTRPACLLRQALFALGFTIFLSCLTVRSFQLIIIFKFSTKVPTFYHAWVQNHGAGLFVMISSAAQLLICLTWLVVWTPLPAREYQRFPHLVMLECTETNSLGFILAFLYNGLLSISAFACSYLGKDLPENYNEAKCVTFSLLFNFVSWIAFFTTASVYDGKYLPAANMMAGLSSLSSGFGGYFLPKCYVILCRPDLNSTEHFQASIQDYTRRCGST
T1 sequence (Q923K1 with tags, fused parts or gaps A568E/S576L/C582S/V584A/T588V/Y598H/W599R/S610P/F612A/I617V/F622V/R632Q/R634S/S635P/S637R/M644L/A645S/N675D/W676R/C678S/S679G/Y680C/T694M/A698V/A702T/M706V/Q717H/V718M/V723A/E725V/M729T/L735F/V738A/I740A/V744T/Q757R/I779T/A793V/Y794L/Q795R/I803L/F805L/A807V/T813A/K818R/V821L/L823M/W824R/L825Q/E827G/Q831P limits assumed): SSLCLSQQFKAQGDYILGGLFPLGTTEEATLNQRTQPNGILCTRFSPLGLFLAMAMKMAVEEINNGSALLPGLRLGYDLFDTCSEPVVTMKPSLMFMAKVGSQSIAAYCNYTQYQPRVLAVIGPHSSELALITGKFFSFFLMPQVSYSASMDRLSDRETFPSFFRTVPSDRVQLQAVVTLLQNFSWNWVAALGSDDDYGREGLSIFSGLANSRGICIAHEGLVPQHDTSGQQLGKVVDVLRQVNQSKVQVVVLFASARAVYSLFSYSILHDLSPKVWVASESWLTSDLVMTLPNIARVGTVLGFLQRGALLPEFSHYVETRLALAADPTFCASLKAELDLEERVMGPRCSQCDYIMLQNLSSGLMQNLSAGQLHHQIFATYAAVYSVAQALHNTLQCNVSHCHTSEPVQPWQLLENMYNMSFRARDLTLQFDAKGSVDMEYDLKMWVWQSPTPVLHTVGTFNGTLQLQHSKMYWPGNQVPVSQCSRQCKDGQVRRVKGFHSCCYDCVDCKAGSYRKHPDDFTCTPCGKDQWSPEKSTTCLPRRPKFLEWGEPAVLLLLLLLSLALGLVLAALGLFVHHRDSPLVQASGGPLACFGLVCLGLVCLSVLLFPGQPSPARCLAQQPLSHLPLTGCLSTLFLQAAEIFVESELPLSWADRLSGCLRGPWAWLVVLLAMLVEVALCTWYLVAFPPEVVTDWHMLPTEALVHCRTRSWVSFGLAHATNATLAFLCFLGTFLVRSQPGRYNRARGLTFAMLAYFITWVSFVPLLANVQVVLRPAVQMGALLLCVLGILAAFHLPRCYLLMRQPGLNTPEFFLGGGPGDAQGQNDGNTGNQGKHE
Settings: MSG dose response, U2OS cell line, FIG. 4A
Text: The x-axis plots the log of MSG concentration, while the y-axis plots fold change in fluorescence of a Ca^2+-sensitive fluorescent dye in response to intracellular Ca^2+ concentration.
The x-axis plots the log of savory compound concentration, while the y-axis plots fold change in fluorescence of a Ca^2+-sensitive fluorescent dye in response to intracellular Ca^2+ concentration. FIG. 4A also indicates the EC50 for each compound.

Structure (SMILES): N[C@@H](CCC(=O)O)C(=O)[O-].[Na+] [MSG, monosodium glutamate]
- fold change in fluorescence of a Ca^2+-sensitive fluorescent dye in response to intracellular Ca^2+ concentration: fluorescence detectably increases as MSG concentration increases
